Values after ≈ are worked out from the molar mass of the structure shown.
How the values were obtained:
Type in all cases: cell-based
[1] = system: Entero Cloac. IM 11; assay: In vitro minimal inhibitory concentration, Entero Cloac. IM 11
[2] = system: Pseudomonas BRK 12-4-4; assay: In vitro minimal inhibitory concentration, Pseudomonas BRK 12-4-4; conditions: for MIC: BRK1244
[3] = system: Staph UC76; assay: In vitro minimal inhibitory concentration, Staph UC76
[4] = system: E. Coli. Brig; assay: In vitro minimal inhibitory concentration, E. Coli. Brig; conditions: for MIC: Escherichia coli
[5] = system: E. Coli. Vogel; assay: In vitro minimal inhibitory concentration, E. Coli. Vogel; conditions: for MIC: Escherichia coli
[6] = system: Prot Vulg.; assay: In vitro minimal inhibitory concentration, Prot Vulg.
[7] = system: Pseudomonas #28; assay: In vitro minimal inhibitory concentration, Pseudomonas #28; conditions: Pseudomonas #28, in vitro; for MIC: read-out: Minimal Inhibitory Concentration
[8] = system: Strep. fec. MGH 2; assay: In vitro minimal inhibitory concentration, Strep. fec. MGH 2
[9] = system: Klebs. Pneum. MGH 2; assay: In vitro minimal inhibitory concentration, Klebs. Pneum. MGH 2
[10] = system: Pseudomonas UI 18; assay: In vitro minimal inhibitory concentration, Pseudomonas UI 18; conditions: for MIC: UI18
[11] = system: Serr. Mar. IMM 16; assay: In vitro minimal inhibitory concentration, Serr. Mar. IMM 16
[12] = system: Staph S 18713; assay: In vitro minimal inhibitory concentration, Staph S 18713

SMILES | MIC [1] | MIC [2] | MIC [3] | MIC [4] | MIC [5] | MIC [6] | MIC [7] | MIC [8] | MIC [9] | MIC [10] | MIC [11] | MIC [12] | other results
CC(=O)OCC1=C(C(=O)O)N2C(=O)C(NC(=O)[C@H](NC(=O)c3ccc(-c4ccc(NC(=O)[C@@H](C)N)cc4)[nH]c3=O)c3ccccc3)C2SC1 (stereo partly drawn) [Example 29, N-[6-[4-(D-Alanylamino)phenyl]-1,2-dihydro-2-oxonicotinyl]-7-[D-2-amino-2-phenylacetamido]-3-acetoxymethyl-3-cephem-4-carboxylic acid] | – | – | – | – | – | – | – | – | – | – | – | – | Minimal Inhibitory Concentration [1]: 12.5 µg/mL; Minimal Inhibitory Concentration [2]: 1.6 µg/mL; Minimal Inhibitory Concentration [3]: 0.4 µg/mL; Minimal Inhibitory Concentration [4]: 6.3 µg/mL; Minimal Inhibitory Concentration [5]: 1.6 µg/mL; Minimal Inhibitory Concentration [6]: 6.3 µg/mL; Minimal Inhibitory Concentration [7]: 1.6 µg/mL; Minimal Inhibitory Concentration [8]: 12.5 µg/mL; Minimal Inhibitory Concentration [9]: 6.3 µg/mL; Minimal Inhibitory Concentration [10]: 1.6 µg/mL; Minimal Inhibitory Concentration [11]: 25 µg/mL; Minimal Inhibitory Concentration [12]: 1.6 µg/mL
CC(=O)N1CC(O)C[C@H]1C(=O)Nc1ccc(-c2ccc(C(=O)N[C@@H](C(=O)NC3C(=O)N4C(C(=O)O)=C(CSc5nnnn5CC(=O)O)CSC34)c3ccccc3)c(=O)[nH]2)cc1 (stereo partly drawn) [Example 30, N-[6-[4-(N-Acetyl-4-hydroxy-L-prolylamino)phenyl]-1,2-dihydro-2-oxonicotinyl]-7-[D-2-amino-2-phenylacetamido]-3-[[(1-carboxymethyl-1H-tetrazol-5-yl)thio]methyl]-3-cephem-4-carboxylic acid] | 3.1 µg/mL (≈ 3.55 µM) | 12.5 µg/mL (≈ 14.3 µM) | 6.3 µg/mL (≈ 7.22 µM) | 3.1 µg/mL (≈ 3.55 µM) | 0.8 µg/mL (≈ 0.916 µM) | 1.6 µg/mL (≈ 1.83 µM) | 6.3 µg/mL (≈ 7.22 µM) | > 50 µg/mL | 1.6 µg/mL (≈ 1.83 µM) | 6.3 µg/mL (≈ 7.22 µM) | 12.5 µg/mL (≈ 14.3 µM) | 25 µg/mL (≈ 28.6 µM) | –
CC(=O)OCC1=C(C(=O)O)N2C(=O)C(NC(=O)[C@H](NC(=O)c3ccc(-c4ccc(NC(=O)[C@@H]5CC(O)CN5C(C)=O)cc4)[nH]c3=O)c3ccccc3)C2SC1 (stereo partly drawn) [Example 31, N-[6-[4-(N-Acetyl-4-hydroxy-L-prolylamino)phenyl]-1,2-dihydro-2-oxonicotinyl]-7-[D-2-amino-2-phenylacetamido]-3-acetoxymethyl-3-cephem-4-carboxylic acid] | 12.5 µg/mL (≈ 16.2 µM) | 12.5 µg/mL (≈ 16.2 µM) | 0.8 µg/mL (≈ 1.04 µM) | 12.5 µg/mL (≈ 16.2 µM) | 3.1 µg/mL (≈ 4.01 µM) | 25 µg/mL (≈ 32.4 µM) | 12.5 µg/mL (≈ 16.2 µM) | 25 µg/mL (≈ 32.4 µM) | 6.3 µg/mL (≈ 8.15 µM) | 12.5 µg/mL (≈ 16.2 µM) | > 50 µg/mL | 25 µg/mL (≈ 32.4 µM) | –
CC(=O)OCC1=C(C(=O)O)N2C(=O)C(NC(=O)[C@H](NC(=O)c3ccc(-c4ccc(NC(=O)[C@@H]5CC(OC(C)=O)CN5C(C)=O)cc4)[nH]c3=O)c3ccccc3)C2SC1 (stereo partly drawn) [Example 32, N-[6-[4-[N-Acetyl-4-(acetyloxy)-L-prolylamino]phenyl]-1,2-dihydro-2-oxoniotinyl]-7-[D-2-amino-2-phenylacetamido]-3-acetoxymethyl-3-cephem-4-carboxylic acid] | 25 µg/mL (≈ 30.7 µM) | 25 µg/mL (≈ 30.7 µM) | 1.6 µg/mL (≈ 1.96 µM) | 25 µg/mL (≈ 30.7 µM) | 6.3 µg/mL (≈ 7.73 µM) | 25 µg/mL (≈ 30.7 µM) | 12.5 µg/mL (≈ 15.3 µM) | 25 µg/mL (≈ 30.7 µM) | 12.5 µg/mL (≈ 15.3 µM) | 12.5 µg/mL (≈ 15.3 µM) | > 50 µg/mL | 6.3 µg/mL (≈ 7.73 µM) | –
CC(=O)OCC1=C(C(=O)O)N2C(=O)C(NC(=O)[C@H](NC(=O)c3ccc(-c4ccc(NC(=O)[C@@H]5CCC(=O)N5C)cc4)[nH]c3=O)c3ccccc3)C2SC1 (stereo partly drawn) [Example 34, N-[6-[4-[N-Methyl-5-oxo-L-prolylamino]phenyl]-1,2-dihydro-2-oxo-nicotinyl]-7-[D-2-amino-2-phenylacetamido]-3-acetoxymethyl-3-cephem-4-carboxylic acid] | 12.5 µg/mL (≈ 16.8 µM) | 12.5 µg/mL (≈ 16.8 µM) | 0.4 µg/mL (≈ 0.539 µM) | 12.5 µg/mL (≈ 16.8 µM) | 3.1 µg/mL (≈ 4.17 µM) | 12.5 µg/mL (≈ 16.8 µM) | 6.3 µg/mL (≈ 8.48 µM) | 25 µg/mL (≈ 33.7 µM) | 6.3 µg/mL (≈ 8.48 µM) | 6.3 µg/mL (≈ 8.48 µM) | 50 µg/mL (≈ 67.3 µM) | 3.1 µg/mL (≈ 4.17 µM) | –
CC(=O)NCCCC[C@H](NC(C)=O)C(=O)Nc1ccc(-c2ccc(C(=O)N[C@@H](C(=O)NC3C(=O)N4C(C(=O)O)=C(COC(C)=O)CSC34)c3ccccc3)c(=O)[nH]2)cc1 (stereo partly drawn) [Example 35, N-[6-[4-(N,N'-Diacetyl-L-lysylamino)phenyl]-1,2-dihydro-2-oxonicotinyl]-7-[D-2-amino-2-phenylacetamido]-3-acetoxymethyl-3-cephem-4-carboxylic acid] | 12.5 µg/mL (≈ 15.1 µM) | 12.5 µg/mL (≈ 15.1 µM) | 3.1 µg/mL (≈ 3.74 µM) | 25 µg/mL (≈ 30.1 µM) | 6.3 µg/mL (≈ 7.59 µM) | > 50 µg/mL | 12.5 µg/mL (≈ 15.1 µM) | 25 µg/mL (≈ 30.1 µM) | 12.5 µg/mL (≈ 15.1 µM) | 6.3 µg/mL (≈ 7.59 µM) | > 50 µg/mL | 6.3 µg/mL (≈ 7.59 µM) | –
CC(=O)N[C@H](C)C(=O)Nc1ccc(-c2ccc(C(=O)N[C@@H](C(=O)NC3C(=O)N4C(C(=O)O)=C(CSc5nnnn5CCC(=O)O)CSC34)c3ccccc3)c(=O)[nH]2)cc1 (stereo partly drawn) [Example 41] | 6.3 µg/mL (≈ 7.46 µM) | 12.5 µg/mL (≈ 14.8 µM) | 3.1 µg/mL (≈ 3.67 µM) | 6.3 µg/mL (≈ 7.46 µM) | 0.8 µg/mL (≈ 0.947 µM) | 3.1 µg/mL (≈ 3.67 µM) | 6.3 µg/mL (≈ 7.46 µM) | 50 µg/mL (≈ 59.2 µM) | 1.6 µg/mL (≈ 1.89 µM) | 12.5 µg/mL (≈ 14.8 µM) | 12.5 µg/mL (≈ 14.8 µM) | 12.5 µg/mL (≈ 14.8 µM) | –

— patent US4311698A, “Aminoacid derivatives of cephalosporin compounds” (priority 1980, dated 1982)
